The nature of series [1]: in vivo. The conditions noted are these: female, SD, rat, iv, 100 ug/kg.
Method: (§1) SD-strain mature female rats (weighing about 270 g, 14 to 18 weeks old, in groups of 4 to 5 individuals) at diestrus as selected by the vaginal smear test covering a period of at least one week are anesthetized with pentobarbital and phenobarbital at 8-11 a.m., and a solution prepared by dissolving 500 μg of TAP-144 and 20 mg (2%), 50 mg (5%) or 100 mg (10%) of α-cyclodextrin in physiological saline in an amount to make 1 ml is administered into the vagina with about 12 mg of cotton soaked therewith at the dose level of 0.2 ml/kg (corresponding 100 μg/kg of TAP-144).
Series [2] is described as follows: in vivo. Conditions: rat, 100 ug/kg, Concentration in Serum. On the procedure: In 0.1 ml of physiological saline are dissolved 100 μg of TAP-144 and 5 mg of α-cyclodextrin, and in the manner of Experimental Example 1, the 0.1 ml/kg equivalent of the solution is administered into the nasal cavity (the dose of TAP-144: 100 μg/kg).
For series [3] the following is noted: rat, in vivo.
Method: as §1

Each structure is given as a SMILES string.

On to `CCNC(=O)[C@@H]1CCCN1C(=O)[C@H](CCCNC(=N)N)NC(=O)[C@H](CC(C)C)NC(=O)[C@@H](CC(C)C)NC(=O)[C@H](Cc1ccc(O)cc1)NC(=O)[C@H](CO)NC(=O)[C@H](Cc1c[nH]c2ccccc12)NC(=O)[C@H](Cc1c[nH]cn1)NC(=O)[C@@H]1CCC(=O)N1` [TAP-144], for which, in series [1], the level at 5 min is 212 ng/mL, the level at 10 min came to 173 ng/mL, the level at 0.5 h amounted to 74.2 ng/mL and the level at 1 h came out at 39.3 ng/mL. Further, in series [1], the level at 2 h amounted to 6.76 ng/mL, the level at 4 h was determined as 1.83 ng/mL and the level at 6 h was under 0.13 ng/mL. In series [2] (SD (Sprague-Dawley), sc), this compound had a level at 0.5 h of 44 ng/mL, a level at 1 h of 40.2 ng/mL, a level at 2 h of 24 ng/mL and a level at 4 h of 6.7 ng/mL. In series [2] (SD, inhaled or intranasal), this compound yielded a level at 0.5 h of 3.2 ng/mL and a level at 4 h of 3.9 ng/mL. The “promotion of vaginal absorption as compared with the control vaginal preparation” value in series [3] is “about 6 times”. In addition, in series [3] (100 ug/kg, 0.5 h), the “Concentration of TAP-144 in serum” value amounted to 32.1 ng/mL.

Source of the values: patent US4670419A, “Pharmaceutical composition and its rectal use” (Takeda Chemical Industries, Ltd., priority 1982, dated 1987).
